The source of these data is patent publication US20200030414A1, “THERAPEUTIC AGENT FOR SHORT STATURE” (Daiichi Sankyo Company, Limited, priority 2017, published 2020).

Data set [1] is described as follows: Estimated concentration in plasma during repeated subcutaneous administration with two vehicles (Example 3). The format is in vivo, rat.
The nature of data set [2]: Concentration in plasma during 24-hour continuous intravenous administration (Example 4). The class given is in vivo, cynomolgus monkey. The settings on record: 0.1 mg/kg/day continuous i.v. 24 h, immediately before completion of administration. How it is done:
(§1) The CNP derivative (A) was continuously intravenously administered at doses of 0.015 to 0.1 mg/kg/day at a constant rate to telemetry transmitter-implanted cynomolgus monkeys (two males and two females), and studied for its influence on blood pressure (systolic, diastolic, and average blood pressures), heart rate, and an electrocardiographic parameter.
[Table 3: Systolic blood pressure fluctuation range (maximum value during administration period) when CNP derivative (A) was continuously intravenously administered at constant rate for 24 hours to cynomolgus monkey, and concentration of CNP derivative (A) in plasma immediately before completion of administration

Data set [3] can be described thus: Blood pressure lowering effect, 24-hour continuous intravenous administration, telemetry (Example 4). On the set-up: Systolic blood pressure fluctuation range (maximum value %): unit not given here. The following applies: for Systolic blood pressure fluctuation range (maximum value %): maximum value during administration period. The format is in vivo, cynomolgus monkey. The procedure:
as §1

A further data set concerns NPR-B. The following applies: Furuya et al. 1992; cited from earlier work.
Chain of NPR-B (P20594 23-1047, species assumed): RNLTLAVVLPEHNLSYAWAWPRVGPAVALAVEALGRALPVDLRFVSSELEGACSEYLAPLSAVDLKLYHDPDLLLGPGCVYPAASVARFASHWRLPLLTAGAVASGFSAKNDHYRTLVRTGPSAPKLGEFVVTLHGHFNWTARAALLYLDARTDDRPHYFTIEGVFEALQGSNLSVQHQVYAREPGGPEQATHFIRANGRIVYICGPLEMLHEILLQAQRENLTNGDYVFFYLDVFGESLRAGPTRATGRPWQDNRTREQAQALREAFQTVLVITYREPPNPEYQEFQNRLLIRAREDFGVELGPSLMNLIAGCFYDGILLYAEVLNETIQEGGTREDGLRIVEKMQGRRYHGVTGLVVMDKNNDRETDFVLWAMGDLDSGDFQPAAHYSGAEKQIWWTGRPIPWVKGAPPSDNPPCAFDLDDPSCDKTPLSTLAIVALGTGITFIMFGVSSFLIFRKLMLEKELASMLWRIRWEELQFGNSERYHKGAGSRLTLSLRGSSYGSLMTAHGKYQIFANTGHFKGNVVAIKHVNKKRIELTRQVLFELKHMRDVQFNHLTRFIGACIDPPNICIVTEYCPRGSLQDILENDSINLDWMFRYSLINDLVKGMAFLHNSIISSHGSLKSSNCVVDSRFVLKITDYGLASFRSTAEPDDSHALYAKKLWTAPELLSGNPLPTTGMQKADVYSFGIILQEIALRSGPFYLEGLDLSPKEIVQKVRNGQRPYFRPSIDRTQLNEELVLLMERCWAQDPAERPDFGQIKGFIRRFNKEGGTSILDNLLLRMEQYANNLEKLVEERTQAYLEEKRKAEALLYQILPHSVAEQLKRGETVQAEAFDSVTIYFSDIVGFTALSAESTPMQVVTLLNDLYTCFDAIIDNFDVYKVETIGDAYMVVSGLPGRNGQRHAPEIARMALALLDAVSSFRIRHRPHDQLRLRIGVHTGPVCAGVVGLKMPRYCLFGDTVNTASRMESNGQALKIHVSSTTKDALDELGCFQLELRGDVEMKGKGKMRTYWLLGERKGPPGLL
The nature of data set [4]: Body length after 7-day repeated or continuous subcutaneous administration (Example 2). The format is in vivo, rat. The settings on record: for Body length (from mouth to end of tail): male SD rat. How it is done: A dosing solution of the CNP derivative (A) or (B) was repeatedly subcutaneously administered at doses of 0.005, 0.015, 0.05, 0.15 and 0.5 mg/kg/day once a day for 7 days to 7-week-old male Crl:CD (SD) rats, or charged in an osmotic pump (MINI-OSMOTIC PUMP Model 2002, manufactured by DURECT Corp., flow rate: 0.5 μL/hr, for 14-day use), implanted in the backs of rats, and continuously subcutaneously administered at these doses for 7 days. Their body lengths (from the mouth to the end of the tail) were measured before the start of administration and 8 days after the start of administration.

For data set [5] the following is noted: normal mice, continuous intravenous administration, increased bone length; cited from earlier work.

Where a SMILES comes first, the peptide text is derived from it. Bridges are numbered along the chain shown (N, C = ends). Where no end group is shown, it is not given here.

As to `CC[C@H](C)[C@@H]1NC(=O)[C@H](CCCNC(=N)N)NC(=O)[C@H](CC(=O)O)NC(=O)[C@H](CC(C)C)NC(=O)[C@H](CCCCN)NC(=O)[C@H](CC(C)C)NC(=O)CNC(=O)[C@H](Cc2ccccc2)NC(=O)[C@@H](NC(=O)CNC(=O)[C@H](CCCCN)NC(=O)[C@H](CO)NC(=O)[C@H](CC(C)C)NC(=O)CN)CSSC[C@@H](C(=O)N[C@H](C(=O)N[C@@H](CCC(N)=O)C(=O)N[C@@H](CCC(N)=O)C(=O)N[C@@H](CCCNC(=N)N)C(=O)N[C@@H](CCCCN)C(=O)N[C@@H](CC(=O)O)C(=O)N[C@@H](CO)C(=O)N[C@@H](CCCCN)C(=O)N[C@@H](CCCCN)C(=O)N2CCC[C@H]2C(=O)N2CCC[C@H]2C(=O)N[C@@H](C)C(=O)N[C@@H](CCCCN)C(=O)N[C@@H](CC(C)C)C(=O)N[C@@H](CCC(N)=O)C(=O)N2CCC[C@H]2C(=O)N[C@@H](CCCNC(=N)N)C(=O)O)C(C)C)NC(=O)CNC(=O)[C@H](CC(C)C)NC(=O)CNC(=O)[C@H](CO)NC(=O)[C@H](CCSC)NC(=O)[C@H](CO)NC(=O)CNC1=O` [CNP derivative (A)] (H-GLSKGCFGLKLDRIGSMSGLGCVQQRKDSKKPPAKLQPR-OH; disulfide 6-22; N-terminus and C-terminus assumed), the “estimated concentration in plasma” value in data set [1] (vehicle 1, 0.5 mg/kg s.c., 9 hours after administration) is recorded as at most 0.1 ng/mL; in data set [1] (vehicle 1, 0.5 mg/kg s.c., immediately after administration), at least 200 ng/mL; in data set [1] (vehicle 2, 0.25 mg/kg s.c., 12 hours after administration), at least 0.1 ng/mL. Besides, the “peak concentration in plasma (estimated)” value in data set [1] (vehicle 2, 0.25 mg/kg s.c.) is reported as “about 40 ng/mL”. Besides, the Concentration in plasma in data set [2] is listed as 9.8 ng/mL. Further, the entries for the “Systolic blood pressure fluctuation range (maximum value %)” value in data set [3] (0.015 mg/kg/day continuous i.v. 24 h), in data set [3] (0.05 mg/kg/day continuous i.v. 24 h) and in data set [3] (0.1 mg/kg/day continuous i.v. 24 h) were −6.8, −11.0 and −20.5, respectively. The “systolic blood pressure decrease” value in data set [3] (0.05 mg/kg continuous i.v.) is given as −11.0 mmHg; in data set [3] (0.1 mg/kg continuous i.v.) it was −20.5 mmHg. Moreover, the reflex tachycardia result in data set [3] (concentration in plasma up to 9.8 ng/mL at its maximum) is on record as “no symptom indicating reflex tachycardia was observed”. Also, the “concentration in plasma up to which reflex tachycardia is less likely to occur” value in data set [3] (elevated by continuous change) is listed as “about 10 ng/mL”. Moreover, the “blood pressure lowering effect (systolic and average blood pressures), average of differences from pre-administration values” in data set [3] (observed from 0.05 mg/kg) is on record as “exceeding 10 mmHg”. Also, the “concentration in plasma at which the risk of developing decreased blood pressure is drastically reduced” value in data set [3] (waking cynomolgus monkeys) is at most 4 ng/mL.

Turning to “CNP6-22: peptide consisting of the ring structure, amino acid positions 6 to 22 of SEQ ID NO: 1 (CFGLKLDRIGSMSGLGC; disulfide 1-17 (inferred); listed as Homo sapiens)”, the “NPR-B agonistic activity compared with hCNP-22” value in the data set with NPR-B is on record as “almost equivalent to that of hCNP-22”.

For “CNP derivative (B): derivative consisting of the amino acid sequence Pro-Gly-CNP-37 (SEQ ID NO: 4), from WO2009/067639, under clinical development for achondroplasia (PGQEHPNARKYKGANKKGLSKGCFGLKLDRIGSMSGLGC; CNP derivative D, which disclosed in Am. J. Hum. Gent.(2012), 91(6), 1108-1114)”, the “bone growth effect per dose, continuous vs repeated subcutaneous administration” value in data set [4] (7 days) is on record as “stronger under continuous subcutaneous administration conditions”. Moreover, the “Body length (from mouth to end of tail)” value is reported as 215.2 ± 3.5 ^NS mm in data set [4] (continuous subcutaneous, 0.005 mg/kg/day, 7 days); 213.6 ± 4.4 ^NS mm in data set [4] (continuous subcutaneous, 0.015 mg/kg/day, 7 days); 212.2 ± 5.2 ^NS mm in data set [4] (continuous subcutaneous, 0.05 mg/kg/day, 7 days); 220.2 ± 4.3 mm in data set [4] (continuous subcutaneous, 0.15 mg/kg/day, 7 days); 222.8 ± 3.5 mm in data set [4] (continuous subcutaneous, 0.5 mg/kg/day, 7 days); 211.8 ± 2.9 ^NS mm in data set [4] (repeated subcutaneous, 0.005 mg/kg/day, 7 days). Also, the “Body length (from mouth to end of tail)” value in data set [4] (repeated subcutaneous, 0.015 mg/kg/day, 7 days) was 213.2 ± 4.4 ^NS mm; in data set [4] (repeated subcutaneous, 0.05 mg/kg/day, 7 days) it was 214.4 ± 4.7 ^NS mm; in data set [4] (repeated subcutaneous, 0.15 mg/kg/day, 7 days) it was 211.3 ± 4.5 ^NS mm; in data set [4] (repeated subcutaneous, 0.5 mg/kg/day, 7 days) it was 215.2 ± 3.3 ^NS mm. Further, in data set [4] (continuous subcutaneous, 7-day, doses of 0.15 mg/kg/day or higher), the “increase in body length (from the mouth to the end of the tail)” value is reported as “significant increase”. Moreover, in data set [4] (repeated subcutaneous administration conditions, 7 days), the “effect on body length” value is “no significant effect”.

In the case of CNP-22, the “effective concentration in plasma” value in data set [5] is reported as 29.3 ng/mL.
